Reference: ChEMBL document CHEMBL1201862, “PubChem BioAssay data set” (2004)
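Each compound was tested at five concentrations against cells in 96-well plates for 48 hours. At the GI50, growth is halved.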 Activity calls are given as the source filed them. Rule as the data show it: active = GI50 up to about 1.1 µM and inactive = higher.

Columns and labels:
Experiment in all cases: NCI anticancer screen, dose series, 48 h
SF-268 = test system: SF-268
SK-MEL-28 = test system: SK-MEL-28
OVCAR-3 = test system: OVCAR-3
LOX IMVI = test system: LOX IMVI
HOP-62 = test system: HOP-62
RPMI-8226 = test system: RPMI-8226
Malme-3M = test system: Malme-3M
UACC-257 = test system: UACC-257
786-0 = test system: 786-0
SNB-75 = test system: SNB-75
SN12C = test system: SN12C
A498 = test system: A498
RXF 393 = test system: RXF 393
A549 = test system: A549
HL-60 = test system: HL-60
HOP-92 = test system: HOP-92

Measured: GI50

Cc1ccc(-n2nc(C(OC3OC(CO)C(O)C(O)C3O)C(O)CO)c3nc4cc(C)c(C)cc4nc32)cc1 (stereo not given)
inactive: SF-268 > 100 µM | SK-MEL-28 > 100 µM | OVCAR-3 > 100 µM | LOX IMVI > 100 µM | HOP-62 > 100 µM | RPMI-8226 > 100 µM | Malme-3M > 100 µM | UACC-257 > 100 µM | 786-0 > 100 µM | SNB-75 34 µM | SN12C > 100 µM | A498 > 100 µM | RXF 393 36.2 µM

NC(=O)Cn1c(=O)[nH]c(=O)c2[nH]cnc21
inactive: SF-268 > 100 µM | SK-MEL-28 > 100 µM | OVCAR-3 > 100 µM | LOX IMVI > 100 µM | HOP-62 > 100 µM | Malme-3M > 100 µM | UACC-257 > 100 µM | A549 > 100 µM | 786-0 > 100 µM | HL-60 > 100 µM | SNB-75 > 100 µM | SN12C > 100 µM | A498 > 100 µM | RXF 393 > 100 µM

N#CC(/C(CCC(=O)Nc1ccc(Cl)cc1)=N/NC(=O)c1cc2ccccc2cc1O)c1ccccc1 (stereo not given)
inactive: SF-268 25.4 µM | SK-MEL-28 48.8 µM | OVCAR-3 30.5 µM | LOX IMVI 14.5 µM | HOP-62 31.3 µM | RPMI-8226 14.9 µM | Malme-3M 50 µM | UACC-257 30.7 µM | A549 40.8 µM | 786-0 38.3 µM | HL-60 6.53 µM | SNB-75 45 µM | SN12C 43.4 µM | HOP-92 40.9 µM | RXF 393 56.5 µM

Cc1cccc(NC(=O)/C(=N\N)C(c2cnc3ccc([N+](=O)[O-])cc3n2)[N+](=O)[O-])c1C (stereo not given)
inactive: SF-268 > 100 µM | SK-MEL-28 > 100 µM | OVCAR-3 > 100 µM | LOX IMVI 74.8 µM | HOP-62 > 100 µM | Malme-3M > 100 µM | UACC-257 > 100 µM | A549 > 100 µM | 786-0 > 100 µM | HL-60 > 100 µM | SNB-75 > 100 µM | SN12C > 100 µM | HOP-92 > 100 µM | RXF 393 > 100 µM

Nc1ccc2nc3n(c2c1)C(=O)c1ccccc1-3
inactive: SF-268 > 100 µM | SK-MEL-28 > 100 µM | OVCAR-3 > 100 µM | RPMI-8226 > 100 µM | Malme-3M > 100 µM | UACC-257 > 100 µM | A549 > 100 µM | 786-0 > 100 µM | HL-60 > 100 µM | SNB-75 > 100 µM | SN12C > 100 µM | HOP-92 > 100 µM | RXF 393 > 100 µM

O=C(/C=C/c1ccco1)c1ccc(NCc2nc3ccccc3[nH]2)cc1
inactive: SF-268 20 µM | SK-MEL-28 18 µM | OVCAR-3 16.6 µM | LOX IMVI 12.2 µM | HOP-62 19.1 µM | Malme-3M 19 µM | UACC-257 11.1 µM | 786-0 14.6 µM | HL-60 13 µM | SNB-75 15.8 µM | SN12C 17.2 µM | HOP-92 12.2 µM | A498 14.4 µM

O=c1[nH]c(=O)n([C@H]2C[C@@H](CO)[C@@H](O)C2)cc1I
inactive: SF-268 > 100 µM | SK-MEL-28 > 100 µM | OVCAR-3 > 100 µM | LOX IMVI > 100 µM | HOP-62 > 100 µM | RPMI-8226 > 100 µM | Malme-3M > 100 µM | UACC-257 > 100 µM | A549 > 100 µM | 786-0 > 100 µM | HL-60 > 100 µM | SNB-75 91.6 µM | SN12C > 100 µM | HOP-92 > 100 µM | A498 > 100 µM

COc1ccc(NC(=O)CC/C(CC(=O)c2ccco2)=N/NC(N)=S)cc1
inactive: SF-268 > 100 µM | OVCAR-3 > 100 µM | LOX IMVI > 100 µM | HOP-62 > 100 µM | RPMI-8226 > 100 µM | Malme-3M > 100 µM | UACC-257 > 100 µM | A549 > 100 µM | 786-0 > 100 µM | HL-60 > 100 µM | SN12C > 100 µM | HOP-92 > 100 µM | A498 > 100 µM
